# Reference: paper PMC3921447, “Homologous and heterologous desensitization of guanylyl cyclase-B signaling in GH3 somatolactotropes” (Cell and Tissue Research, 2013)
# Tests used:
# GC-B = target: T1, GC-B (Rattus norvegicus, UniProt P16067); test: Effect of natriuretic peptide pre-treatment on CNP-stimulated (GC-B) cGMP accumulation in GH3 cells; format: cell-based; details: 100 nM CNP pre-treatment, then 100 nM CNP 15 min with IBMX; ns, P > 0.05; Fig. 3a
# T1 construct: rapid homologous desensitization of endogenous GC-B receptors in GH3 cells; endogenous in cells; host or cells: GH3 rat somatolactotrope cells
# T1 sequence (P16067 17-1047): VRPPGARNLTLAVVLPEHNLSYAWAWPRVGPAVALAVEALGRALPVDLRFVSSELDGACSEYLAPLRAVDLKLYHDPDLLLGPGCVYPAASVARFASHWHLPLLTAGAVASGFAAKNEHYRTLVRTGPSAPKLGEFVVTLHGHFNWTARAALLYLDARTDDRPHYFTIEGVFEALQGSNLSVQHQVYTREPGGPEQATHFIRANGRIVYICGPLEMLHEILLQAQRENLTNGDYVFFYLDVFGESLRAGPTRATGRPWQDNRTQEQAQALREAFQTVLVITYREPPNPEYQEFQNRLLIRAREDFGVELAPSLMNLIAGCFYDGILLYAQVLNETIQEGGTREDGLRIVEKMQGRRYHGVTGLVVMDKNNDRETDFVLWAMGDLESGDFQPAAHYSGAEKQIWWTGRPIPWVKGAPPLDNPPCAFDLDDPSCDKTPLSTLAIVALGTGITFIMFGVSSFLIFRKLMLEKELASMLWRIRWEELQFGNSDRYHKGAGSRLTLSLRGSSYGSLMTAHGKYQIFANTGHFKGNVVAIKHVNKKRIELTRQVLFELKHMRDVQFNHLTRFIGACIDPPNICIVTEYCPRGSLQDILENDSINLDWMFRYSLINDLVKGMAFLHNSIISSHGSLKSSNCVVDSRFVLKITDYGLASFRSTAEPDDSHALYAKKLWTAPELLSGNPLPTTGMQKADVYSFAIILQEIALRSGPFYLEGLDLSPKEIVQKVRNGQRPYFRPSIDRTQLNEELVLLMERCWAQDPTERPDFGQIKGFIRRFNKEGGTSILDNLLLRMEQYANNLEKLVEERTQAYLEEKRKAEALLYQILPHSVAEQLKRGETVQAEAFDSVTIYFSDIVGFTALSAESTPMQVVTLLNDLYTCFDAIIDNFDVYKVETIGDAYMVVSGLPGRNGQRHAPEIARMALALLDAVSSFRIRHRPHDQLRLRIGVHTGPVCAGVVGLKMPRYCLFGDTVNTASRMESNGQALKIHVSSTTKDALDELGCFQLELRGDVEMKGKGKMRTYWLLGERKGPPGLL
# Experimental: (§1) Having established that GC-B signaling but not that of GC-A receptors, underwent rapid homologous desensitization, we next examined the effect of prolonged exposure of each receptor to its specific ligand. GH3 cells pre-treated with either ANP or CNP for 0 (control) to 6 h reduced the response to a subsequent 15-min treatment of ANP or CNP (with IBMX). […] The amount of cGMP measured from the 15-min pre-treatment sample was reduced by 39.6 ± 0.002 % (***P < 0.001). This effect was maintained up to the 6-h pre-treatment with CNP, which was reduced by 37.9 ± 7.1 % compared with the control (***P < 0.001).
# (§2) Fig. 3 Effect of chronic exposure to CNP and ANP on GC-B- and GC-A-dependent cGMP accumulation in GH3 cells. Cells were initially treated with (a) 100 nM CNP or (b) 100 nM ANP in PSS without IBMX for 0 to 6 h. The medium was removed and replaced with 100 nM CNP (a) or 100 nM ANP (b) for 15 min in the presence of 1 mM IBMX. […]
# (§3) In similar experiments designed to examine the effect of ANP pre-exposure to GC-A activity, a significant reduction in cGMP accumulation was observed within 30 min of ANP pre-treatment (by 28.9 ± 3.1 % compared with the control, *P < 0.05). […] In order to test the receptor specificity of the observed down-regulation of GC-B upon pre-treatment with CNP and of GC-A upon pre-treatment with ANP, the effects of ANP on GC-B and CNP on GC-A desensitization were determined. […]
# GC-A = target: T2, GC-A (Rattus norvegicus, UniProt P18910); test: Effect of natriuretic peptide pre-treatment on ANP-stimulated (GC-A) cGMP accumulation in GH3 cells; format: cell-based; details: 100 nM CNP pre-treatment 6 h, then 100 nM ANP plus 1 mM IBMX 15 min; Fig. 3d; ns, P > 0.05
# T2 construct: Evidence of homologous desensitization of endogenous GC-A- and GC-B-mediated signaling in GH3 cells; endogenous in cells; host or cells: GH3 rat somatolactotrope cells
# T2 sequence (P18910 29-1057): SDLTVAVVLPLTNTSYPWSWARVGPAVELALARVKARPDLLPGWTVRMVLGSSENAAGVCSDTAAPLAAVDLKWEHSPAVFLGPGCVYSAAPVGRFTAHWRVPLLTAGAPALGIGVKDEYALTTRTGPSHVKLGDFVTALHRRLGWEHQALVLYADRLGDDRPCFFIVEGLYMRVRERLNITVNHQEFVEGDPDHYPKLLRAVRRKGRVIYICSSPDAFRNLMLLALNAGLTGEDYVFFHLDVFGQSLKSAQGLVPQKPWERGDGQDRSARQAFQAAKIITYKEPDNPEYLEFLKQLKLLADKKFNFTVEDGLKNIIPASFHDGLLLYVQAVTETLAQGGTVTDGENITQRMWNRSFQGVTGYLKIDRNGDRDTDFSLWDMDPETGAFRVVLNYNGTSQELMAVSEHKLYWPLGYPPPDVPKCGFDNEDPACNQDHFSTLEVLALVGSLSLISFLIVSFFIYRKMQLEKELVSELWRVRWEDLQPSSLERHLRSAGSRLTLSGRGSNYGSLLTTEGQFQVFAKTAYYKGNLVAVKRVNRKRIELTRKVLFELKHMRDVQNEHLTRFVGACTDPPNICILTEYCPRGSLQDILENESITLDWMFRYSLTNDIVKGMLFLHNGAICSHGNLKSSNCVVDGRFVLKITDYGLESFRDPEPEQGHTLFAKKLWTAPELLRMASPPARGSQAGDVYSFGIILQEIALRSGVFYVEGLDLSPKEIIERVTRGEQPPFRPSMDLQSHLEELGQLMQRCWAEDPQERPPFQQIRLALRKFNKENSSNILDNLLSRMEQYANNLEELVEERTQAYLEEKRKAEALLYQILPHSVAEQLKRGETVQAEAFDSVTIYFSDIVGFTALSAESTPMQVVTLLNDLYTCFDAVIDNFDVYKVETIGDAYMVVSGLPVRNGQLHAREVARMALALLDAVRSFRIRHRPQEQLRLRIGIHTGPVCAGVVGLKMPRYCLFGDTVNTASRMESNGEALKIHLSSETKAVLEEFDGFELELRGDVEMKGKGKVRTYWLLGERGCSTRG
# Experimental: as §1, §2, §3
compound,measurement,setting,value
"CC[C@H](C)[C@@H]1NC(=O)[C@H](CCCNC(=N)N)NC(=O)[C@H](CC(=O)O)NC(=O)[C@H](CC(C)C)NC(=O)[C@H](CCCCN)NC(=O)[C@H](CC(C)C)NC(=O)CNC(=O)[C@H](Cc2ccccc2)NC(=O)[C@@H](NC(=O)CNC(=O)[C@H](CCCCN)NC(=O)[C@H](CO)NC(=O)[C@H](CC(C)C)NC(=O)CN)CSSC[C@@H](C(=O)O)NC(=O)CNC(=O)[C@H](CC(C)C)NC(=O)CNC(=O)[C@H](CO)NC(=O)[C@H](CCSC)NC(=O)[C@H](CO)NC(=O)CNC1=O [CNP, C-type natriuretic peptide]",difference in reduction of cGMP between 15-min and 6-h pre-treatments,GC-B,did not significantly differ between the 15-min to 6-h pre-treatments
same,ANP-stimulated cGMP after CNP pre-treatment vs control,GC-A,not significantly different from the control samples
